Assay results reported in patent US20100075852A1, “HERBICIDE COMBINATION COMPRISING DIMETHOXYTRIAZINYL-SUBSTITUTED DIFLUOROMETHANESULFONYLANILIDES” (BAYER CROPSCIENCE AG, priority 2008, published 2010).
Like-named read-outs stand apart in the source and are kept apart here.

Columns and labels:
Assay in all cases: Post-emergence action against weeds, greenhouse pot test, visual scoring
Format in all cases: in vivo
[1] = test system: Cyperus esculentus (CYPES)
Procedure: (§1) Seeds or rhizome pieces of mono- and dicotyledonous harmful and useful plants were placed in peat pots (diameter 4 cm) filled with sandy loam and then covered with soil. The pots were kept in a greenhouse under optimum conditions. In addition, harmful plants encountered in paddy rice cultivation were cultivated in pots with a water level 2 cm above the soil surface.
(§2) About three weeks after the start of the cultivation, the test plants were treated at the 2- to 3-leaf stage. The herbicides, formulated as powder or liquid concentrates, were, either alone or in the combinations according to the invention, sprayed in various dosages on to the green parts of the plants using an application rate of 600 l of water/ha (converted). For further cultivation of the plants, the pots were then again kept under optimum conditions in a greenhouse.
(§3) The visual scoring of the herbicidal effects was carried out in intervals up to 21 days after the treatment. Scoring was carried out in percent in comparison to the untreated control plants. 0%=no herbicidal activity, 100%=complete herbicidal activity=complete kill.
(§4) The percentages from the treatments with the herbicides alone (=individual application) and with the combinations according to the invention (=mixtures) were employed to calculate interactions using the method of Colby.
(§5) • A, B=activity of components A and B in percent at a dosage of a and b g of ai/ha (=gramm of active substance per hectare), respectively. • E=expected value in % at a dosage of a+b g of ai/ha.

Viola tricolor (VIOTR) = settings: Viola tricolor, post-emergence, 504 h, 21 DAT, read-out: % activity found
Procedure: as §1, §2, §3, §4, §5

[2] = test system: Lolium multiflorum (LOLMU); settings: Lolium multiflorum, post-emergence, LOLMU, read-out: % activity found; for inhibition at 60 g/ha: 60 g of ai/ha alone; for inhibition at 12 g/ha: 12 g of ai/ha alone; for inhibition at 70 g/ha: 70 g of ai/ha alone; for inhibition at 750 g/ha: 750 g of ai/ha alone
Procedure: as §1, §2, §3, §4, §5

Zea mays (ZEAMX) = settings: for inhibition at 36 g/ha: 36 g of ai/ha alone
Procedure: as §1, §2, §3, §4, §5

Avena fatua (AVEFA) = settings: Avena fatua, post-emergence, 504 h, read-out: % activity found
Procedure: as §1, §2, §3, §4, §5

Oryza sativa (ORYSA) = settings: read-out: % activity found; for inhibition at 7 g/ha: 7 g of ai/ha alone; for inhibition at 210 g/ha: 210 g of ai/ha alone
Procedure: as §1, §2, §3
(§6) The percentages from the treatments with the herbicides alone (=individual application) and with the combinations according to the invention (=mixtures) were employed to calculate interactions using the method of Colby. When the observed efficacies of the mixtures exceed the formal sum of the values of the tests with individual applications, they also exceed the expected value according to Colby, which is calculated using the formula below (cf. S. R. Colby; in Weeds 15 (1967) pp. 20 to 22):
as §5

[3] = test system: Triticum aestivum (TRZAS); settings: Triticum aestivum, post-emergence, read-out: % activity found; for inhibition at 20 g/ha: 20 g of ai/ha alone; for inhibition at 60 g/ha: 60 g of ai/ha alone; for inhibition at 750 g/ha: 750 g of ai/ha alone
Procedure: as §1, §2, §3, §4, §5

[4] = test system: Fallopia (ex Polygonum) convolvulus (POLCO); settings: Fallopia convolvulus, post-emergence, 504 h, POLCO, 21 DAT, read-out: % activity found
Procedure: as §1, §2, §3, §4, §5

[5] = test system: Alopecurus myosuroides (ALOMY); settings: read-out: % activity found; for inhibition at 20 g/ha: 20 g of ai/ha alone; for inhibition at 60 g/ha: 60 g of ai/ha alone
Procedure: as §1, §2, §3, §6, §5

[6] = test system: Matricaria inodora (MATIN); settings: Tripleurospermum inodorum, post-emergence, 504 h, MATIN, 21 DAT, read-out: % activity found
Procedure: as §1, §2, §3, §4, §5

[7] = Cyperus esculentus, post-emergence, 504 h, read-out: % activity found
[8] = Zea mays, post-emergence, 240 h, read-out: % activity found

COCc1cnc(C2=NC(C)(C(C)C)C(=O)N2)c(C(=O)O)c1 (racemic) [B4-2, (±)-2-[4,5-dihydro-4-methyl-4-(1-methylethyl)-5-oxo-1H-imidazol-2-yl]-5-(methoxymethyl)-3-pyridinecarboxylic acid]
inhibition at 7 g/ha ([1]; Cyperus esculentus, post-emergence, 504 h, CYPES, 21 DAT, 7 g of ai/ha alone, read-out: % activity found): 0%
inhibition at 7 g/ha (Viola tricolor (VIOTR); 7 g of ai/ha alone): 20%
inhibition at 21 g/ha (Viola tricolor (VIOTR); 21 g of ai/ha alone): 40%
inhibition at 7 g/ha ([2]; 504 h, 21 DAT, 7 g of ai/ha alone): 80%
inhibition at 7 g/ha (Zea mays (ZEAMX); Zea mays, post-emergence, 504 h, ZEAMX, 21 DAT, 7 g of ai/ha alone, read-out: % activity found): 10%
inhibition at 21 g/ha (Zea mays (ZEAMX); Zea mays, post-emergence, 504 h, ZEAMX, 21 DAT, 21 g of ai/ha alone, read-out: % activity found): 60%
inhibition at 21 g/ha (Avena fatua (AVEFA); AVEFA, 21 DAT, 21 g of ai/ha alone): 70%
inhibition at 7 g/ha (Oryza sativa (ORYSA); 240 h, ORYSA, 10 DAT): 70%
inhibition at 7 g/ha (Oryza sativa (ORYSA); 504 h, ORYSA, 21 DAT): 70%

CS(=O)(=O)c1cc(C(F)(F)F)ccc1C(=O)c1cnoc1C1CC1 [B3-3, (5-cyclopropyl-4-isoxazolyl)[2-(methylsulfonyl)-4-(trifluoromethyl)phenyl]methanone]
inhibition at 20 g/ha ([1]; Cyperus esculentus, post-emergence, 504 h, CYPES, 21 DAT, 20 g of ai/ha alone, read-out: % activity found): 0%
inhibition at 60 g/ha ([2]; 240 h, 10 DAT): 30%
inhibition at 20 g/ha ([2]; 504 h, 21 DAT, 20 g of ai/ha alone): 0%
inhibition at 60 g/ha ([2]; 504 h, 21 DAT): 0%
inhibition at 20 g/ha ([3]; 240 h, 10 DAT): 30%
inhibition at 60 g/ha ([3]; 240 h, 10 DAT): 50%
inhibition at 20 g/ha ([3]; 504 h, 21 DAT): 20%
inhibition at 60 g/ha ([3]; 504 h, 21 DAT): 40%
inhibition at 20 g/ha ([4]; 20 g of ai/ha alone): 0%
inhibition at 60 g/ha ([4]; 60 g of ai/ha alone): 0%
inhibition at 20 g/ha (Zea mays (ZEAMX); Zea mays, post-emergence, 504 h, ZEAMX, 21 DAT, 20 g of ai/ha alone, read-out: % activity found): 0%
inhibition at 60 g/ha (Zea mays (ZEAMX); Zea mays, post-emergence, 504 h, ZEAMX, 21 DAT, 60 g of ai/ha alone, read-out: % activity found): 20%
inhibition at 20 g/ha ([5]; 240 h, ALOMY, 10 DAT): 20%
inhibition at 60 g/ha ([5]; 240 h, ALOMY, 10 DAT): 30%
inhibition at 20 g/ha ([5]; 504 h, ALOMY, 21 DAT): 0%
inhibition at 60 g/ha ([5]; 504 h, ALOMY, 21 DAT): 10%
inhibition at 20 g/ha (Oryza sativa (ORYSA); 240 h, ORYSA, 10 DAT, 20 g of ai/ha alone): 50%

C#CCOc1cc(-n2nc(C(C)(C)C)oc2=O)c(Cl)cc1Cl [B5-2, 3-[2,4-dichloro-5-(2-propynyloxy)phenyl]-5-(1,1-dimethylethyl)-1,3,4-oxadiazol-2(3H)-one]
inhibition at 12 g/ha ([6]; 12 g of ai/ha alone): 60%
inhibition at 36 g/ha ([6]; 36 g of ai/ha alone): 60%
inhibition at 12 g/ha ([2]; 240 h, 10 DAT): 40%
inhibition at 12 g/ha ([2]; 504 h, 21 DAT): 30%
inhibition at 36 g/ha ([2]; 504 h, 21 DAT, 36 g of ai/ha alone): 65%
inhibition at 36 g/ha ([3]; 240 h, 10 DAT, 36 g of ai/ha alone): 40%
inhibition at 36 g/ha (Zea mays (ZEAMX); Zea mays, post-emergence, 240 h, ZEAMX, 10 DAT, read-out: % activity found): 60%
inhibition at 36 g/ha (Zea mays (ZEAMX); Zea mays, post-emergence, 504 h, ZEAMX, 21 DAT, read-out: % activity found): 40%
inhibition at 12 g/ha (Avena fatua (AVEFA); AVEFA, 21 DAT, 12 g of ai/ha alone): 20%
inhibition at 12 g/ha ([5]; 504 h, ALOMY, 21 DAT, 12 g of ai/ha alone): 20%

CC(C)Oc1cc(-n2nc(C(C)(C)C)oc2=O)c(Cl)cc1Cl [B5-3, 3-[2,4-dichloro-5-(1-methylethoxy)phenyl]-5-(1,1-dimethylethyl)-1,3,4-oxadiazol-2(3H)-one]
inhibition at 70 g/ha ([6]; 70 g of ai/ha alone): 70%
inhibition at 210 g/ha ([6]; 210 g of ai/ha alone): 70%
inhibition at 70 g/ha ([2]; 240 h, 10 DAT): 50%
inhibition at 70 g/ha ([2]; 504 h, 21 DAT): 40%
inhibition at 70 g/ha ([3]; 240 h, 10 DAT, 70 g of ai/ha alone): 40%
inhibition at 210 g/ha (Zea mays (ZEAMX); Zea mays, post-emergence, 504 h, ZEAMX, 21 DAT, 210 g of ai/ha alone, read-out: % activity found): 60%
inhibition at 70 g/ha (Avena fatua (AVEFA); AVEFA, 21 DAT, 70 g of ai/ha alone): 10%
inhibition at 210 g/ha (Avena fatua (AVEFA); AVEFA, 21 DAT, 210 g of ai/ha alone): 30%
inhibition at 210 g/ha (Oryza sativa (ORYSA); 240 h, ORYSA, 10 DAT): 40%
inhibition at 70 g/ha (Oryza sativa (ORYSA); 504 h, ORYSA, 21 DAT, 70 g of ai/ha alone): 0%
inhibition at 210 g/ha (Oryza sativa (ORYSA); 504 h, ORYSA, 21 DAT): 0%

CC(C)c1nn(C(=O)NC(C)(C)C)c(=O)n1N [B6-1, 4-amino-N-(1,1-dimethylethyl)-4,5-dihydro-3-(1-methylethyl)-5-oxo-1H-1,2,4-triazole-1-carboxamide]
inhibition at 250 g/ha [1, 7]: 0%
inhibition at 750 g/ha [1, 7]: 0%
inhibition at 750 g/ha ([2]; 240 h, 10 DAT): 60%
inhibition at 750 g/ha ([2]; 504 h, 21 DAT): 70%
inhibition at 250 g/ha ([3]; 240 h, 10 DAT, 250 g of ai/ha alone): 10%
inhibition at 750 g/ha ([3]; 240 h, 10 DAT): 20%
inhibition at 750 g/ha ([3]; 504 h, 21 DAT): 70%
inhibition at 750 g/ha (Zea mays (ZEAMX); Zea mays, post-emergence, 504 h, ZEAMX, 21 DAT, 750 g of ai/ha alone, read-out: % activity found): 10%
inhibition at 750 g/ha ([5]; 504 h, ALOMY, 21 DAT, 750 g of ai/ha alone): 70%

CCOC(=O)C(Cl)Cc1cc(-n2nc(C)n(C(F)F)c2=O)c(F)cc1Cl (stereo not drawn) [B6-2, ethyl α,2-dichloro-5-[4-(difluoromethyl)-4,5-dihydro-3-methyl-5-oxo-1H-1,2,4-triazol-1-yl]-4-fluorobenzenepropanoate]
(7) activity found ([1]; CYPES, 21 DAT, rate (6) B6-2 18): 50%
(7) activity found (Zea mays (ZEAMX); ZEAMX, 21 DAT, rate (6) B6-2 6): 30%
(7) activity found (Zea mays (ZEAMX); ZEAMX, 21 DAT, rate (6) B6-2 18): 40%
inhibition at 6 g/ha (Zea mays (ZEAMX); [8]): 50%
inhibition at 18 g/ha (Zea mays (ZEAMX); [8]): 60%
inhibition at 6 g/ha (Avena fatua (AVEFA)): 10%
inhibition at 6 g/ha ([5]; 504 h): 0%
inhibition at 18 g/ha ([5]; 504 h): 0%
inhibition at 6 g/ha (Oryza sativa (ORYSA); 240 h): 50%
